Test results as given in PubChem BioAssay (NCI).
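Values below derive from 48-hour exposures of cells grown in 96-well plates, with endpoints linearly interpolated between the two concentrations bracketing the appropriate inhibition level. TGI: concentration producing complete growth inhibition.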

Assays:
Experiment in all cases: DTP human tumour cell line panel, 48 h
MDA-N = tested on: MDA-N
MCF7 breast = tested on: MCF7 breast
OVCAR-3 ovarian = tested on: OVCAR-3 ovarian
SF-268 CNS = tested on: SF-268 CNS
SNB-75 CNS = tested on: SNB-75 CNS
LOX IMVI melanoma = tested on: LOX IMVI melanoma
HS 578T breast = tested on: HS 578T breast
UO-31 renal = tested on: UO-31 renal
K-562 leukemia = tested on: K-562 leukemia
SK-MEL-5 melanoma = tested on: SK-MEL-5 melanoma

SMILES	TGI (MDA-N) [µM]	TGI (MCF7 breast) [µM]	TGI (OVCAR-3 ovarian) [µM]	TGI (SF-268 CNS) [µM]	TGI (SNB-75 CNS) [µM]	TGI (LOX IMVI melanoma) [µM]	TGI (HS 578T breast) [µM]	TGI (UO-31 renal) [µM]	TGI (K-562 leukemia) [µM]	TGI (SK-MEL-5 melanoma) [µM]
CC(=O)O[C@H]1C[C@H]2C(=S)Nc3ccccc3C(=S)N2C1	> 100	> 100	> 100	> 100	> 100	> 100	> 100	> 100	> 100	> 100
CC(=O)OCC1OC(O/C=C(\CN=[N+]=[N-])C(C)=O)C(OC(C)=O)C(OC(C)=O)C1OC(C)=O (stereo not given)	30	28	28.7	56.9	33.3	17.1	> 100	21.4	23.6	26.2
CSc1nc2c(=O)n(-c3ccccc3)c(=S)n(-c3ccccc3)c2s1	> 100	> 100	> 100	> 100	91.7	> 100	94.7	> 100	> 100	> 100
CC1(C)CCC(=O)NC1CC(=O)CC1NC(=O)CCC1(C)C (stereo not given)	> 100	> 100	> 100	> 100	> 100	> 100	> 100	> 100	> 100	> 100
CCOC(=O)Cn1c(=O)c2cc(-c3ccccc3)cc3c(Cl)nc4c(OC)c(OC)cc1c4c32	43.2	22.7	60.1	29.2	49.6	26.4	> 27.7	43.8	> 55	> 59.9
CCCCCCCCCCCCCCCCCCOCC(COP(=O)([O-])OCC[N+](C)(C)C)OC (stereo not given)	> 100	> 54.3	54.5	51.8	37.2	45	> 100	52.7	75.2	62.9
N#Cc1nc(CCC(c2nc(C#N)c(N)o2)N2C(=O)c3ccccc3C2=O)oc1N (stereo not given)	> 100	> 100	> 100	> 100	> 100	> 100	> 100	> 100	> 100	> 100
Cc1cc2nc(N3C(=O)/C(=C/c4ccc(Cl)cc4)N=C3c3ccccc3)sc2cc1C	30.3	> 100	50	> 100	63.9	56.2	74.2	> 100	> 100	43.6
N#Cc1ccc(Oc2nc3ccc(C(F)(F)F)cc3nc2-c2ccccc2)cc1	57.8	44.1	44.8	76.4	32.1	91.1	44.5	46.1	55.9	46.5
C[C@]1(O)O[C@@H]2OCC[C@@H]2C2=C1C(=O)c1ccccc1C2=O	19.1	23.3	22.3	26.3	74	25.2	82.4	31.8	59.5	24.8
CC(=O)N1c2ccccc2C(C)C1c1[nH]c2ccccc2c1C (stereo not given)	50.6	> 100	46.1	62	50.1	> 100	42.4	47.6	> 100	28.3
c1ccc(-c2cc(-c3cccs3)c(-c3cccs3)o2)cc1	> 100	> 100	> 100	> 100	> 100	> 100	> 100	> 100	> 100	> 100
CC1CCc2sc3[nH]c(=S)n(-c4ccccc4)c(=O)c3c2C1 (stereo not given)	> 100	> 100	85.3	> 100	91	> 100	> 100	> 100	> 100	> 100
Cc1nc(C(N)=S)sc1C(=O)C/C(=N/N)C(=O)Nc1ccc(Cl)cc1	> 100	> 100	> 100	> 100	> 100	> 100	> 100	> 100	> 100	> 100
CCc1nc2ccc(C(F)(F)F)cc2[nH]c1=O	> 100	> 100	> 100	> 100	> 100	> 100	> 100	> 100	> 100	> 100
COc1ccc2cc(C(=O)NCCCNC(=O)c3ccc4cc(OC)ccc4c3)ccc2c1	> 100	> 100	> 100	> 100	50.5	> 100	> 100	> 100	> 100	> 100
COC(=O)c1cc(C(=CCC[C@H]2CC[C@@]3(C)C(CCC4C3CC[C@@]3(C)C4CC[C@@H]3C(C)CCCC(C)C)C2)c2cc(Cl)c(OC(=O)c3ccccc3)c(C(=O)OC)c2)cc(Cl)c1OC(=O)c1ccccc1 (stereo not given in full)	> 10	> 10	> 10	> 10	> 10	> 10	> 10	> 10	> 10	> 10

SMILES	TGI (MDA-N) [µM]	TGI (MCF7 breast) [µM]	TGI (OVCAR-3 ovarian) [µM]	TGI (SF-268 CNS) [µM]	TGI (SNB-75 CNS) [µM]	TGI (LOX IMVI melanoma) [µM]	TGI (HS 578T breast) [µM]	TGI (UO-31 renal) [µM]	TGI (K-562 leukemia) [µM]	TGI (SK-MEL-5 melanoma) [µM]
CC[C@@]12C=CC(=S)N(CCSc3ccccc3)[C@@H]1c1c(n(S(=O)(=O)c3ccc(OC)cc3)c3ccccc13)CC2	> 100	> 100	> 100	> 100	> 100	> 100	> 100	> 100	> 100	> 100
CCN(CC)C(=O)N1CN(c2ccccc2)C2(CCN(CCCSc3ccc(F)cc3)CC2)C1=O	21.3	> 100	18.6	36.1	50.3	10.7	16.6	22.6	27.4	12.3
COc1cc2c(cc1OCCCC(=O)Nc1cc(C(=O)NCCCN(C)C)n(C)n1)N=CC1CCCN1C2=O (stereo not given)	73.2	> 80.7	74.2	> 50.4	22.3	> 21.2	> 100	24.3	3.8	14
C(=C\c1cc(-c2ccc3ccccc3n2)nc2ccc3ccccc3c12)/c1ccc2ccccc2n1	> 100	> 100	> 100	> 100	97.9	> 100	> 100	> 100	> 100	> 100
Cn1c(=O)c2c(nc(Nc3ccc(Cl)cc3)n3c(=O)n(-c4ccccc4)c(=O)n23)n(C)c1=O	> 100	> 100	> 100	> 100	> 100	> 100	> 100	> 100	> 100	> 100
Cc1ccc(S(=O)(=O)N2CCNCCN(S(=O)(=O)c3ccc(C)cc3)CCN(S(=O)(=O)c3ccc(C)cc3)CC2)cc1	> 100	> 100	> 100	> 100	> 100	> 100	> 100	> 100	> 100	> 100
CCN1CCC(O)(c2ccc(Oc3ccc(C)cc3)cc2)C(C(=O)c2ccc(Oc3ccc(C)cc3)cc2)C1 (stereo not given)	22.6	8.41	36.9	32.9	20.4	13.5	48.3	20.6	> 100	20.4
C=C(C(=O)OC)c1cc2ccccc2n1S(=O)(=O)c1ccccc1	14	8.11	11.4	8.22	14.5	8.21	18.8	9.41	> 100	5.36
S=C(Nc1ccccn1)Nc1ccccc1Cl	> 100	> 100	> 100	> 78	> 80.4	> 100	> 52.2	> 100	> 100	> 100
Cc1ccc(C(=O)Nc2ccc(S(=O)(=O)O)c3cc(S(=O)(=O)O)cc(S(=O)(=O)O)c23)cc1NC(=O)c1cccc(NC(=O)Nc2cccc(C(=O)Nc3cc(C(=O)Nc4ccc(S(=O)(=O)O)c5cc(S(=O)(=O)O)cc(S(=O)(=O)O)c45)ccc3C)c2)c1 (tested in a mixture with another compound)	> 50	> 50	> 50	> 50	> 50	> 50	> 50	> 50	> 50	> 50
C=CCN(c1cc(OC)c2[nH]cc(C)c2c1[N+](=O)[O-])S(C)(=O)=O	> 100	> 100	> 100	> 100	> 100	> 100	> 100	> 100	> 100	> 100
COC(=O)c1ccccc1C1CN=NC12Cc1cccc(C)c1C2=O (stereo not given)	> 100	91.9	82.1	> 100	> 100	> 100	> 100	83.9	> 100	> 100
CC(C)C1CC[C@H](C)C[C@@H]1OC(=O)C(C(=O)O[C@H]1C[C@@H](C)CCC1C(C)C)C(O)[C@@H]1OC(C)(C)O[C@H]1C1COC(C)(C)O1 (stereo not given in full)	35.4	22.6	36.2	42.7	53	35.5	36.5	31.3	32.2	29.2
COc1cc2c(cc1OC)-c1cc3cc(OC)c(OC)cc3c(=O)n1CC2	> 100	> 100	> 100	> 100	> 79.3	> 100	> 57.5	13.2	> 100	25.9
Clc1nc(Cl)c(CBr)c(Cl)n1	13.2	26	13.3	23.1	24.8	4.14	> 56.8	9.01	> 23.5	8.46
Clc1ncc(Cl)c(Cl)n1	11	4.8	14.3	20.5	9.98	3.22	14.9	7.17	4.08	12.7
CC(C)(C)c1ccc(C(C)(C)C)c(N2C(=O)C3ON=C(c4ccc([N+](=O)[O-])cc4)C3C2=O)c1 (stereo not given)	> 25	> 25	> 25	> 25	14.3	> 25	> 25	> 25	> 25	> 25
